The values that follow come from article PMC3251254, “Mini-PEG spacering of VAP-1-targeting ^68Ga-DOTAVAP-P1 peptide improves PET imaging of inflammation” (EJNMMI Research, 2011).

Series [1] is classed as in vitro ADME. The note with it: plasma. As to the method: The in vitro stability of the ^68Ga-labelled peptides was evaluated in human and rat plasma. Several samples were taken during the 4-h incubation period at 37°C. Proteins from plasma samples were precipitated with 10% sulphosalicylic acid (1:1 v/v), centrifuged at 3,900 × g for 3 min at 4°C, and filtered through 0.45-μm Minispike filter (Waters Corporation). The filtrate was analysed by radio-HPLC.

The conditions of series [2]: in vivo, iv; for AUC / CL / blood-plasma ratio / metabolic half-life / plasma free fraction (fp): rat. As to the method: Blood samples (0.2 ml of each) were drawn at 5, 10, 15, 30, 45, 60 and 120 min after injection of ^68Ga-DOTA-peptides into heparinised tubes (Microvette 100; Sarstedt, Nümbrecht, Germany). Radioactivity of whole blood was measured with the gamma counter (Wizard, EG&G Wallac). Plasma was separated by centrifugation (2,200 × g for 5 min at 4°C), and plasma radioactivity was measured. The ratio of radioactivity in blood versus plasma was calculated. To determine plasma protein binding, proteins were precipitated with 10% sulphosalicylic acid, and the radioactivity in protein precipitate and supernatant was measured. The plasma supernatant was further analysed by radio-HPLC in order to evaluate the in vivo stability of the ^68Ga-labelled peptides.
In vivo stability data were used in order to generate metabolite-corrected plasma TACs for ^68Ga-DOTAVAP-P1 and ^68Ga-DOTAVAP-PEG-P1, which were further used for the calculation of pharmacokinetic parameters. The area under curve (AUC) of the plasma TAC from 0 to infinity was calculated using a non-compartmental analysis employing the trapezoidal rule. The clearance (CL) of the ^68Ga-labelled peptides after a single intravenous bolus dose was calculated by dividing the injected dose by the AUC. The plot of the natural logarithm of parent tracer concentration against time after bolus injection became linear in the end phase, as the tracer was eliminated according to the laws of first-order reaction kinetics. The elimination rate constant (kel) was calculated as the negative slope of the linear part of the plot. The plasma elimination half-life (t1/2) was calculated as t1/2 = ln(2)/kel. The metabolic half-lives of the ^68Ga-DOTA-peptides were calculated according to the results of radio-HPLC, i.e. the time point when 50% of the total radioactivity is still bound to the intact peptide.

Where two headings read alike, the source gives them in different places. Residues, ends and D or L forms follow the SMILES beside them. *: point of attachment. DOTA = O=C(O)CN1CCN(CC(=O)O)CCN(CC(=O)*)CCN(CC(=O)O)CC1; AEEA = NCCOCCOCC(=O)O

With `NCCCC[C@H](NC(=O)CNC(=O)CNC(=O)CNC(=O)CNC(=O)COCCOCCNC(=O)CN1CCN(CC(=O)O)CCN(CC(=O)O)CCN(CC(=O)O)CC1)C(=O)NCC(=O)NCC(=O)NCC(=O)NCC(=O)O` [^68Ga-DOTAVAP-PEG-P1, metal not drawn] ({DOTA-AEEA}-GGGGKGGGG-OH), the amount remaining (as a rule, what is left of the initial amount, in per cent) at 4 h in series [1] (human) came out at 89 ± 8%. Also, the fraction remaining at 4 h in series [1] (rat) was 90 ± 6%. In addition, in series [2], the “proportion of unchanged peptide in rat plasma at 60 min after injection” value was 76 ± 18%, the “proportion of unchanged peptide in rat plasma at 120 min after injection” value worked out at 49 ± 6%, the AUC is recorded as 2,400 ± 68 min*kBq/ml and the CL stood at 0.008 ± 0.002 mL/min. Moreover, in series [2], the blood-plasma ratio worked out at 1.3 ± 0.1, the metabolic half-life came out at 2.08 h and the “plasma free fraction (fp)” value was 0.86 ± 0.02.
In series [1] (human), `NCCCC[C@H](NC(=O)CNC(=O)CNC(=O)CNC(=O)CNC(=O)CN1CCN(CC(=O)O)CCN(CC(=O)O)CCN(CC(=O)O)CC1)C(=O)NCC(=O)NCC(=O)NCC(=O)NCC(=O)O` [^68Ga-DOTAVAP-P1, metal not drawn] ({DOTA}-GGGGKGGGG-OH) displayed a fraction remaining at 4 h of 88 ± 3%. In addition, the fraction remaining at 4 h in series [1] (rat) came to 82 ± 11%. In addition, in series [2], the “proportion of unchanged peptide in rat plasma at 60 min after injection” value is listed as 19 ± 4%, the “proportion of unchanged peptide in rat plasma at 120 min after injection” value was determined as 4 ± 1%, the AUC is reported as 950 ± 170 min*kBq/ml and the CL amounted to 0.017 ± 0.001 mL/min. Moreover, in series [2], the blood-plasma ratio stood at 1.3 ± 0.1, the metabolic half-life is 0.4 h and the “plasma free fraction (fp)” value is listed as 0.84 ± 0.04.
